Source: patent publication US10473647B1, “Peptides for use in treatment and diagnosis of type 1 diabetes” (ImmusanT, Inc., priority 2014, dated 2019)
No end group written: not given here.

How the values were obtained:
Format in all cases: cell-based, human
[1] = tested on: CD4+ T cell depleted blood; assay: Whole blood cytokine assay, IFNg, CD4+ T cell depleted blood (Example 2); conditions: T1D Subjects (n of 6), 24 h, peptides 20 ug/mL, pools 4 ug/mL, NEX-01/Nexgen POOL 25 uM, CEFT 1 ug/mL
Protocol: (§1) Depletion of human CD4+ and CD8+ T cells directly from whole blood, using CD4 and CD8 Dynabeads respectively (Dynabeads Human CD4, Life Technologies, #11145D; Dynabeads Human CD8, Life Technologies, #11145D), was done according to the manufacturer's protocol. Briefly, the Dynabeads were resuspended and the desired volume was transferred to a 15 Ml tube. The calculation of the volume of beads added to whole blood was 2×10^6 CD4 beads (25 μL) and 4×10^6 CD8 beads (50 μL) per Ml of whole blood. The beads were first washed with 3 Ml PBS, vortexed and placed on the magnet for 1 minute. Supernatant was discarded and beads were removed from the magnet. Whole blood was then added to the beads at the volume calculated for the concentration of beads in the tubes. The tubes containing whole blood and Dynabeads were then incubated 45 minutes at 4° C. on a continuous rocker.
(§2) Tubes were then placed into the magnet for 2 minutes. The whole blood supernatant was then transferred to a new tube for use in 24-hour Whole Blood Assay or for Flow Cytometric Analysis. Magnetic beads were discarded.
(§3) The depleted blood as well as the remaining undepleted whole blood was then utilized in whole blood cytokine release assays. T-cell cytokine responses were assessed for reactivity to pools of 17mer peptides encompassing all unique 12mer amino-acid sequences derived from pancreatic islet antigens commonly recognized by autoantibodies in T1D: insulin, glutamic decarboxylase-65 (GAD65), and insulinoma-associated antigen (IA)-2 as provided in Table 13A and Table 13B.
(§4) Fresh heparinized blood was incubated with peptide. Concentrations of individual islet-autoantigen peptides were 20 μg/mL and constituent peptides in islet-autoantigen pools were 4 ug/mL. Control MHC class II peptide mix CEFT was used at 1 μg/mL. Gliadin peptide pools were added to whole blood assays at 25 μM. Whole blood assays were incubated for 24 h at 37° C. in 5% CO2. Plasma was separated from blood after centrifugation at 500×g for 10 minutes at room temperature and then transferred to a corresponding well in a “mirror image” sterile 96-well plate. and frozen at −80° C. until use. Multiplex bead-based cytokine assays (MAGPix) were performed according to manufacturer's instructions on thawed plasma. Concentrations of interferon (IFN)-γ-induced protein-10 (IP-10), interleukin (IL)-2 and IFN-γ. Table 14 is a summary of the results for the whole blood cytokine assays which expresses the data in the number of subjects that are positive for ≥1.25 fold production of cytokine over cells incubated with medium only (background).

[2] = tested on: undepleted whole blood; assay: Whole blood cytokine assay, IP-10, undepleted blood, number of subjects with >=1.25 fold over medium (Example 2); conditions: 24 h, peptides 20 ug/mL, pools 4 ug/mL, NEX-01/Nexgen POOL 25 uM, CEFT 1 ug/mL
Protocol: as §3, §4

[3] = tested on: undepleted whole blood; assay: Whole blood cytokine assay, IFNg, undepleted blood, number of subjects with >=1.25 fold over medium (Example 2); conditions: 24 h, peptides 20 ug/mL, pools 4 ug/mL, NEX-01/Nexgen POOL 25 uM, CEFT 1 ug/mL
Protocol: as §3, §4

[4] = tested on: CD8+ T cell depleted blood; assay: Whole blood cytokine assay, IFNg, CD8+ T cell depleted blood (Example 2); conditions: T1D Subjects (n of 6), 24 h, peptides 20 ug/mL, pools 4 ug/mL, NEX-01/Nexgen POOL 25 uM, CEFT 1 ug/mL
Protocol: as §1, §2, §3, §4

[5] = tested on: CD8+ T cell depleted blood; assay: Whole blood cytokine assay, IL-2, CD8+ T cell depleted blood (Example 2); conditions: T1D Subjects (n of 6), 24 h, peptides 20 ug/mL, pools 4 ug/mL, NEX-01/Nexgen POOL 25 uM, CEFT 1 ug/mL
Protocol: as §1, §2, §3, §4

[6] = tested on: CD8+ T cell depleted blood; assay: Whole blood cytokine assay, IP-10, CD8+ T cell depleted blood (Example 2); conditions: T1D Subjects (n of 6), 24 h, peptides 20 ug/mL, pools 4 ug/mL, NEX-01/Nexgen POOL 25 uM, CEFT 1 ug/mL
Protocol: as §1, §2, §3, §4

[7] = tested on: CD4+ T cell depleted blood; assay: Whole blood cytokine assay, IP-10, CD4+ T cell depleted blood (Example 2); conditions: T1D Subjects (n of 6), 24 h, peptides 20 ug/mL, pools 4 ug/mL, NEX-01/Nexgen POOL 25 uM, CEFT 1 ug/mL
Protocol: as §1, §2, §3, §4

[8] = tested on: undepleted whole blood; assay: Whole blood cytokine assay, IL-2, undepleted blood, number of subjects with >=1.25 fold over medium (Example 2); conditions: 24 h, peptides 20 ug/mL, pools 4 ug/mL, NEX-01/Nexgen POOL 25 uM, CEFT 1 ug/mL
Protocol: as §3, §4

[9] = tested on: whole blood from subjects with Type 1 Diabetes; assay: Whole blood IP-10 release assay, fine mapping of preproinsulin epitope (Example 3); conditions: peptide 10 μM; average of 4 subjects with T1D; FIG. 1A-1C
From the text: The leader sequence of the preproinsulin epitope was fine mapped with lys-substituted peptides and C- and N-terminal truncations. […] Without wishing to be bound by any theory, a therapeutic and/or diagnostic peptide in accordance with the present disclosure may be selected to avoid CD8 activity but ensure that CD4 T cells were targeted. The data are the averages of 4 subjects whole blood IP-10 release measured as fold change over medium alone without peptide.
Whole blood was collected from 4 subjects with Type 1 Diabetes aged between 29 and 45-years old. […] In whole blood assays using fresh heparinized blood incubated with peptide (final concentration 10 μM) in phosphate buffered saline (PBS) and DMSO in 96-well round-bottom plates. Peptides (purity by LC-MS >80%) were truncations or lysine-substituted variants of a sequence in preproinsulin shown to be immunogenic in previous studies comparing peptides spanning this polypeptide. […] Assay plates were run on the Luminex MAGPIX magnetic plate reader. The upper limit of quantitation is 10,000 pg/mL and the lower limit of detection is 3.2 pg/mL. The Fold Change of cytokine concentrations from incubations with individual peptides was calculated by dividing the cytokine concentration from the individual peptide incubations by the cytokine concentration of incubations with PBS and DMSO (NIL) on the same assay plates. […]

[10] = Healthy Subjects (n of 4), whole blood
[11] = T1D Subjects (n of 6), Undepleted WB

| Substance | Fold Change IFNg, number of subjects positive for ≥1.25 fold production of cytokine over medium only [1] | Fold Change IP-10, number of subjects positive for ≥1.25 fold production of cytokine over medium only [2, 10] | Fold Change IFNg, number of subjects positive for ≥1.25 fold production of cytokine over medium only [3, 10] | Fold Change IFNg, number of subjects positive for ≥1.25 fold production of cytokine over medium only [4] | Fold Change IL-2, number of subjects positive for ≥1.25 fold production of cytokine over medium only [5] | Fold Change IP-10, number of subjects positive for ≥1.25 fold production of cytokine over medium only [6] | Fold Change IP-10, number of subjects positive for ≥1.25 fold production of cytokine over medium only [7] | Fold Change IP-10, number of subjects positive for ≥1.25 fold production of cytokine over medium only [2, 11] | Fold Change IL-2, number of subjects positive for ≥1.25 fold production of cytokine over medium only [8, 10] | Fold Change IL-2, number of subjects positive for ≥1.25 fold production of cytokine over medium only [8, 11] | Fold Change IFNg, number of subjects positive for ≥1.25 fold production of cytokine over medium only [3, 11] | bioactivity in whole blood IP-10 release assay (fold change over medium alone), in words [9] |
| --- | --- | --- | --- | --- | --- | --- | --- | --- | --- | --- | --- | --- |
| 20150-19 (EDLQVGQVELGGGPGAG-NH2) [Peptide 20150-19] | 2/6 | 1/4 | 1/4 | 3/6 | 1/6 | – | – | – | – | – | – | – |
| 20150-24: peptide tested in Example 2 whole blood cytokine assays (Tables 13A/13B, 14) (PLLALLALWGPDPAAAF) | 1/6 | 4/4 | 1/4 | 5/6 | 6/6 | 5/6 | 3/6 | 6/6 | 1/4 | 4/6 | 4/6 | – |
| L2P1, 051 (NMFTYEIAPVFVLLEYV) | 1/6 | 3/4 | – | 2/6 | 2/6 | 5/6 | 3/6 | 4/6 | – | 1/6 | – | – |
| L3P2, 076 (GRTGTYILIDMVLNRMA) | – | 3/4 | 1/4 | 5/6 | 6/6 | 5/6 | 3/6 | 6/6 | 1/4 | 5/6 | 4/6 | – |
| LLALLALWGPD [SEQ ID NO: 14] | – | – | – | – | – | – | – | – | – | – | – | compatible with an epitope for CD4 T cells |
| LPLLALLAL [SEQ ID NO: 76] | – | – | – | – | – | – | – | – | – | – | – | suggests this is an epitope for CD8 T cells |
